In experiment [1] the test system is lysosomes in VCaP, LNCaP, PC3 and DU145 cells. The experiment can be described thus: LysoTracker Green flow cytometry. The class given is cell-based, human. As to conditions: four prostate cancer cell lines, 24 hours, increasing concentrations. On the procedure: Cells were grown in 6-well plates and treated with various drugs. After 24 hours, cells were stained with LysoTracker® Green DND-26 (Invitrogen), and green fluorescence signal was analyzed by flow cytometry.

The subject of experiment [2] is VCaP 3D spheroids. The experiment is described as follows: 3D spheroid culture. The class given is cell-based, human. The settings on record: VCaP 3D spheroid culture, compared with cabozantinib. How it is done:
Nuclear red fluorescent protein-expressing VCaP cells were seeded in ultralow attachment 96-well plates and spun down at 1000 rpm for 10 minutes to pellet cells. Spheroids were formed after 3 days of incubation in a cell culture incubator, and then treatment was started. Red fluorescence intensity was monitored by IncuCyte ZOOM.

For experiment [3], the system named is GFP-LC3-RFP-LC3ΔG-expressing Myc-CaP cells. The experiment is described as follows: autophagic flux detection in Myc-CaP cells. The format is cell-based, mouse. As to conditions: 24 hours. How it is done: (§1) For autophagic flux detection, 10,000 cells were plated in 96-well plates and incubated with various compounds in complete medium for 24 hours. GFP and RFP fluorescence intensities were measured on a TECAN M1000 plate reader.

In experiment [4] the test system is mouse embryonic fibroblast (MEF) cells. The experiment is described as follows: vacuolization and LC3 lipidation in Atg5 wild-type and knockout MEF cells. The format is cell-based. As to conditions: 300 nM, 24 hours.
The test system of experiment [5] is GFP-LC3 expressing DU145 cells. The experiment can be described thus: GFP-LC3 puncta confocal imaging. The format is cell-based, human. On the procedure: For GFP-LC3 confocal imaging, GFP-LC3 expressing DU145 cells were seeded on coverslips overnight and treated with ESK981 at 300 nM for various time points. Coverslips were then fixed with 10% paraformaldehyde. Confocal images were taken using a Nikon A1 confocal microscope.

The test system of experiment [6] is autophagosomes in LNCaP, VCaP and DU145 cells. The experiment can be described thus: CYTO-ID autophagosome detection. The class given is cell-based, human. The settings on record: 24 hours. On the procedure: 10,000 cells were plated in 96-well plates and incubated with 300 nM of the various compounds for 24 hours. Autophagy activities were detected with CYTO-ID® Autophagy detection kit (Cat No. ENZ-KIT175, Enzo Life Science) according to the manufacturer's instructions, with fluorescence intensity measured on a TECAN M1000 plate reader. Autophagosome induction factor was calculated according to the manufacturer's instructions.

The test system of experiment [7] is PC3 and DU145 cells. The experiment can be described thus: autophagic flux detection (GFP-LC3-RFP-LC3ΔG probe). The class given is cell-based, human. As to conditions: PC3 or DU145 cells, 24 hours. How it is done: as §1
Experiment [8] concerns CXCL10 in VCaP cells. The experiment can be described thus: human CXCL10 ELISA of conditioned medium. The format is cell-based. The settings on record: VCaP-conditioned medium, 300 nM, 24 hours. On the procedure:
Conditioned medium was collected after 24 hours of drug incubation. ELISA was performed using a human CXCL10 ELISA kit (Cat No. KAC2361, ThermoFisher), or a mouse CXCL10 ELISA kit (Cat No. ab214563, Abcam) according to the manufacturer's instructions.

On to `CC(C)Cn1c2ccc(Nc3ncccn3)cc2c2c3c(c4c(c21)CCc1nn(C)cc1-4)C(=O)NC3` [ESK981, 13-isobutyl-4-methyl-10-(pyrimidin-2-ylamino)-1,2,4,7,8,13-hexahydro-6H-indazolo[5,4-a]pyrrolo[3,4-c]carbazol-6-one], for which the “lysosome quantity (LysoTracker Green)” value in experiment [1] is given as “Increased ESK981 lysosome quantity was observed in a dose-dependent manner”. The “inhibitory effect on 3D spheroids” value in experiment [2] is reported as “more robust inhibitory effect at relatively lower concentrations than cabozantinib”. Also, the autophagic flux entry in experiment [3] was “inhibited”. In addition, the LC3 lipidation result in experiment [4] (Atg5 knockout MEFs) was “abolished”. For the same compound, the vacuolization entry in experiment [4] (autophagy-deficient Atg5−/− MEFs) is “largely attenuated”; in experiment [4] (wild-type MEF cells) it was “significantly induced”. In addition, the “time to vacuole formation” value in experiment [5] was “only observed after four hours of treatment”. The “time to LC3 puncta formation” value in experiment [5] (300 nM) was at most 1 h. For the same compound, in experiment [6] (DU145 cells, 300 nM, vs 154 autophagy-related compounds and 167 tyrosine kinase inhibitors), the “rank in autophagosome induction among compound libraries” value is “highest potency at inducing autophagosome levels”. Further, in experiment [6] (LNCaP, VCaP and DU145 cells, increasing concentrations), the “autophagosome signals (CYTO-ID fluorescence intensity)” value is “dose-dependent induction of autophagosome signals”. Besides, the “level of autophagosome induction compared with rapamycin” value in experiment [6] (VCaP and LNCaP cells) is recorded as “higher than a known autophagy activator, the mTOR inhibitor rapamycin”. For the same compound, the “autophagic flux (GFP/RFP ratio)” value in experiment [7] is reported as “low autophagic flux”. Also, the “rank in inducing CXCL10 levels among compound libraries” value in experiment [8] is “ranked first in inducing CXCL10 levels in the tyrosine kinase inhibitor library and second in the autophagy-linked compound library”.

These data come from patent publication US20230364084A1, “METHODS FOR PREVENTING OR TREATING CONDITIONS RELATED TO PIKFYVE ACTIVITY” (The Regents of the University of Michigan, priority 2020, published 2023).
